The values that follow come from publication PMC5508670, “Conformationally restricted calpain inhibitors” (Chemical Science, 2015).

In series [1] the target is T1, calpain-I (Sus scrofa, UniProt P35750).
T1 construct: purchased CalBiochem
T1 sequence (P35750 1-714): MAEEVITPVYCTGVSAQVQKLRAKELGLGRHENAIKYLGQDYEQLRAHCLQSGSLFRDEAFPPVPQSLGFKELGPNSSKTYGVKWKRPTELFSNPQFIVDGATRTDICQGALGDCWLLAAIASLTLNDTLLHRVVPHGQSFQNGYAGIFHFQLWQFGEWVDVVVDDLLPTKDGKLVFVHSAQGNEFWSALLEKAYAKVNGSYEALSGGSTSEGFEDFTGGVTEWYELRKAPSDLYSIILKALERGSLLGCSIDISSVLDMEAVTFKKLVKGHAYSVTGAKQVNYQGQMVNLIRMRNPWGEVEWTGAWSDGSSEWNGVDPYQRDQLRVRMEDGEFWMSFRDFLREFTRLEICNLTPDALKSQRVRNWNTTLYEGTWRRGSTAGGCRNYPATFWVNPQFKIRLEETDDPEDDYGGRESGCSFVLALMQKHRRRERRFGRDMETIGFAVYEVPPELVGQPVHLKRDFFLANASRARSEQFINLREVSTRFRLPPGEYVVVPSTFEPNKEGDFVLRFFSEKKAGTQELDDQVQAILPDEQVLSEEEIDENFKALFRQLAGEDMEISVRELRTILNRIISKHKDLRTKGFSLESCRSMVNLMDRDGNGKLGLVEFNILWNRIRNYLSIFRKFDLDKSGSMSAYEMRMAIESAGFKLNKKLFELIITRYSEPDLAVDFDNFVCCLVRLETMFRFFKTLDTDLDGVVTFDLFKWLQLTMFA
T1 sequence (P04574 1-266): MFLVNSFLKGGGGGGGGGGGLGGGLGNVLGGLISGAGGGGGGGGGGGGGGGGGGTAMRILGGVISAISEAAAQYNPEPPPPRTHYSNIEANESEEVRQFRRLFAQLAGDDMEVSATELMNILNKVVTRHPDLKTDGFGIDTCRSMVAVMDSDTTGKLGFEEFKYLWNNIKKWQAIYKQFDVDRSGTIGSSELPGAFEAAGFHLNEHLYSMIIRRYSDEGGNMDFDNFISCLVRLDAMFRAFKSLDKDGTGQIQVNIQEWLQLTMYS
The series can be described thus: FRET-based calpain-I inhibition assay in the presence and absence of 10 mM DTT. The class given is biochemical, porcine. The method, then: The inhibitory properties of a series of oxidised and reduced α-mercaptoacrylic acid derivatives towards calpain-I (Fig. 4) were assessed in a FRET-based assay in the presence and absence of 10 mM dithiothreitol (DTT).[24],[25] To ensure complete oxidation, compounds were left in the assay solution for 3 hours prior to performing the assay (vide supra and ESI ^†). In the absence of inhibitors there was no observable difference in enzyme activity when assayed under both oxidising and reducing conditions.
Protein Expression, Crystallisation and FRET Based Inhibition Assay Methods […]
FRET based Inhibition Assay
This assay employed a peptide from the calpain-1 substrate α-spectrin, with fluorescein at one terminus internally quenched by DABCYL and the other (H2N-K(FAM)-EVYGMMK(DABCYL)-OH).11 Cleavage by calpain-1 occurs between the Tyr-Gly residues and results in enhanced fluorescence as the quenching effect is relieved. The assays were performed using purified porcine Calpain-1 (CalBiochem, 10 nM) and fluorogenic calpain-1 substrate (Merck, 1 µM) in an assay buffer consisting of HEPES (10 mM) pH 6.8; EDTA (0.5 mM); bovine serum albumin (0.1%). The assay was performed using a fluorescent plate reader (BMG Optistar) in an assay volume of 100 µl at a temperature of 37°C, using an excitation band pass filter centred at 485 nm and emission detected at 520 nm. The compounds to be tested for inhibition were added to the assay mixture before the reaction was initated by the addition of CaCl2 (5 mM).
None of the compounds had significant fluorescence at this wavelength and correction for this was unnecessary. The compounds were dissolved in DMSO at 50 mM and diluted into assay buffer to give range of concentrations from 5 nM to 50 µM. In each assay run, the effect of DMSO alone over the concentration used was also measured. Although there was no effect of DM SO at lower concentrations, in some assay runs, DM SO at 0.005%-0.5% produced some inhibitory effect. This DM SO effect (which was only relevant for compounds with poor inhibitory ability) was subtracted before constructing the inhibition curves.
FRET based inhibition assay (DTT addition)
The same procedure was used as described above except with assay buffer containing HEPES (10 mM) pH 6.8; EDTA (0.5 mM); bovine serum albumin (0.1%) and DTT (10 mM).

Series [2] concerns the target Calpain-I. On the set-up: method as in PMID 8692879. As to conditions: cited from earlier work.
Series [3] has as its target Calpain-II. On the set-up: method as in PMID 8692879. The note with it: cited from earlier work.
Series [4] in a line: Oxidation of sulfhydryl to disulfide in solution (UV-VIS / 1H-NMR). It counts as physicochemical. How it is done:
The rate of conversion of 3 to its disulfide form was dependent upon both the concentration of the compound and the nature of the solution. […] […] Compound 4 was then added to preformed crystals of PEF(S).

[5] abbreviates: absence of DTT (oxidised disulfide form), compounds left 3 hours in assay solution before the assay, read-out: IC50, Disulfide.
Where [6] appears, read: presence of 10 mM DTT (reduced sulfhydryl form), read-out: IC50, Sulfhydryl.
[7] abbreviates: thioethers, 10 mM DTT, read-out: IC50 (DTT).
[8] abbreviates: thioethers, no DTT, read-out: IC50 (No DTT).
The mark [9] stands for this setting: thioethers, DTT had no effect on the potency, read-out: IC50.
Where [10] appears, read: absence of DTT (disulfide form), read-out: IC50 of oxidised compounds.

Molecules are shown by their SMILES. Like-named read-outs stand apart in the source and are kept apart here. Where only a bound is given, the exact number is not on record here.

Regarding `O=C(O)/C(=C/c1c[nH]c2cc(Cl)ccc12)SS/C(=C\c1c[nH]c2cc(Cl)ccc12)C(=O)O` [compound 31], the IC50 (in general, the concentration that gives 50% inhibition) in series [1] (setting [5]) worked out at 28 nM.
For `O=C(O)/C(S)=C/c1c[nH]c2c(Cl)cccc12` [compound 36], the IC50 in series [1] (setting [6]) was 4000 nM.
`O=C(O)/C(=C/c1ccc(Br)cc1)CS/C(=C\c1c[nH]c2cc(Br)ccc12)C(=O)O` [compound 43, (Z)-3-(6-bromoindol-3-yl)-2-(((Z)-3-(4-bromophenyl)-2-carboxyallyl)thio)acrylic acid]: the IC50 in series [1] (setting [7]) and in series [1] (setting [8]) was 10000 nM throughout.
On to `O=C(O)/C(S)=C/c1c[nH]c2c(I)cccc12` [compound 38], for which, in series [1] (setting [6]), the half-maximal inhibitory concentration (IC50) was found to be 2000 nM.
Take `O=C(O)/C(S)=C/c1c[nH]c2ccc(F)cc12` [PD151746]: the figures for the Ki in series [2] and in series [3] were 260 nM and 5330 nM, respectively.
With `O=C(O)/C(=C/c1c[nH]c2ccc(I)cc12)SS/C(=C\c1c[nH]c2ccc(I)cc12)C(=O)O` [compound 29], in series [1] (setting [5]), the IC50 was found to be 15 nM.
Regarding `O=C(O)/C(=C/c1c[nH]c2ccc(Br)cc12)SS/C(=C\c1c[nH]c2ccc(Br)cc12)C(=O)O` [compound 27], the IC50 in series [1] (setting [5]) was determined as 10 nM.
`O=C(O)/C(=C/c1ccccc1F)SS/C(=C\c1ccccc1F)C(=O)O` [compound 6]: in series [1] (setting [5]), the IC50 worked out at 65 nM.
Regarding `O=C(O)/C(=C/c1ccc(Br)cc1)CS/C(=C\c1ccc(Br)cc1)C(=O)O` [compound 40, (Z)-3-(4-Bromophenyl)-2-((((Z)-2-(4-bromophenyl)-1-carboxyvinyl)thio)methyl)acrylic acid], the IC50 in series [1] (setting [7]) and in series [1] (setting [8]) was 10000 nM throughout.
Regarding `O=C(O)/C(=C/c1cccc(Cl)c1)CS/C(=C\c1c[nH]c2ccc(Br)cc12)C(=O)O` [compound 42, (Z)-3-(5-bromoindol-3-yl)-2-(((Z)-2-carboxy-3-(3-chlorophenyl)allyl)thio)acrylic acid], the IC50 in series [1] (setting [8]) turned out to be 2000 nM; in series [1] (setting [9]), 1800 nM.
On to `O=C(O)/C(=C/c1ccc(I)cc1)SS/C(=C\c1ccc(I)cc1)C(=O)O` [compound 23], for which the IC50 in series [1] (setting [10]) amounted to 7.5 nM.
As for `O=C(O)/C(=C/c1cccc(I)c1)SS/C(=C\c1cccc(I)c1)C(=O)O` [compound 17], in series [1] (setting [10]), the half-maximal inhibitory concentration (IC50) was 25 nM.
With `O=C(O)/C(=C/c1c[nH]c2cc(I)ccc12)SS/C(=C\c1c[nH]c2cc(I)ccc12)C(=O)O` [compound 35], the IC50 in series [1] (setting [5]) is 10 nM.
In the case of `O=C(O)/C(=C/c1cccc(Cl)c1)CS/C(=C\c1ccc(Cl)cc1)C(=O)O` [compound 41, (Z)-3-(3-chlorophenyl)-2-((((Z)-2-(4-chlorophenyl)-1-carboxyvinyl)thio)methyl)acrylic acid], the half-inhibitory concentration (IC50) in series [1] (setting [7]), in series [1] (setting [8]) and in series [1] (setting [9]) was greater than 100000 nM each time.
As to `O=C(O)/C(=C/c1ccccc1Br)SS/C(=C\c1ccccc1Br)C(=O)O` [compound 10], the IC50 in series [1] (setting [5]) worked out at 250 nM.
As to `O=C(O)/C(=C/c1c[nH]c2c(I)cccc12)SS/C(=C\c1c[nH]c2c(I)cccc12)C(=O)O` [compound 39], the IC50 in series [1] (setting [5]) worked out at 20 nM.
As for `O=C(O)/C(=C/c1ccc(F)cc1)SS/C(=C\c1ccc(F)cc1)C(=O)O` [compound 19], in series [1] (setting [5]), the IC50 was found to be 50 nM.
With `O=C(O)/C(S)=C/c1ccc(F)cc1` [compound 18], in series [1] (setting [6]), the IC50 amounted to 50000 nM.
As to `O=C(O)/C(S)=C/c1c[nH]c2cc(Cl)ccc12` [compound 30], the half-maximal inhibitory concentration (IC50) in series [1] (setting [6]) was determined as 1000 nM.
On to `O=C(O)/C(S)=C/c1c[nH]c2ccc(Br)cc12` [compound 26], for which the IC50 in series [1] (setting [6]) came to 500 nM.
Take `O=C(O)/C(S)=C/c1ccc(I)cc1` [PD150606]: the Ki – broadly, the equilibrium dissociation constant of an inhibitor or competing ligand from its target – is 210 nM in series [2] and 370 nM in series [3].
Consider `O=C(O)/C(=C/c1ccc(Cl)cc1)SS/C(=C\c1ccc(Cl)cc1)C(=O)O` [compound 21], for which the IC50 in series [1] (setting [5]) stood at 10 nM.
With `O=C(O)/C(S)=C/c1c[nH]c2cc(I)ccc12` [compound 34], the IC50 in series [1] (setting [6]) came to 500 nM.
As for `O=C(O)/C(=C/c1c[nH]c2ccc(Cl)cc12)SS/C(=C\c1c[nH]c2ccc(Cl)cc12)C(=O)O` [compound 25], the IC50 in series [1] (setting [5]) came out at 18 nM.
For the compound `O=C(O)/C(S)=C/c1ccccc1Br` [compound 9], the IC50 in series [1] (setting [6]) was 50000 nM.
Take `O=C(O)/C(S)=C/c1ccccc1F` [compound 5]: the half-inhibitory concentration (IC50) in series [1] (setting [6]) worked out at 50000 nM.
On to `O=C(O)/C(S)=C/c1c[nH]c2ccc(Cl)cc12` [compound 24], for which the IC50 in series [1] (setting [6]) was 1500 nM.
Consider `O=C(O)/C(=C/c1c[nH]c2c(Cl)cccc12)SS/C(=C\c1c[nH]c2c(Cl)cccc12)C(=O)O` [compound 37], for which the IC50 in series [1] (setting [5]) stood at 23 nM.
In the case of `O=C(O)/C(S)=C/c1cccc(F)c1` [compound 11], the 50% inhibitory concentration (IC50) in series [1] (setting [6]) turned out to be 50000 nM.
Turning to `O=C(O)/C(S)=C/c1c[nH]c2cc(Br)ccc12` [compound 3, (Z)-3-(6-bromoindole-3-yl)-2-mercaptoacrylic acid], the IC50 in series [1] (setting [6]) amounted to 500 nM. Besides, the “time to complete conversion to oxidised (disulfide) form” value in series [4] (100 μM in 100 mM KiPO4, pH 7.0, room temperature, UV-VIS) came out at 3 h. Further, the “time after which oxidation was complete” value in series [4] (50 mM in DMSO, room temperature, 1H-NMR) is 24 h.
With `O=C(O)/C(S)=C/c1c[nH]c2ccc(I)cc12` [compound 28], the IC50 in series [1] (setting [6]) was determined as 500 nM.
As for `O=C(O)/C(=C/c1c[nH]c2cc(Br)ccc12)SS/C(=C\c1c[nH]c2cc(Br)ccc12)C(=O)O` [compound 4, (2Z,2′Z)-2,2′-disulfanediylbis(3-(6-bromoindol-3-yl)acrylic acid)], the IC50 in series [1] (disulfide prepared by iodine mediated oxidation and in situ prior to the assay, read-out: IC50 (dose response curve, Figure S8)) is 200 nM.
`O=C(O)/C(S)=C/c1cccc(I)c1` [compound 16]: the IC50 in series [1] (setting [6]) is 3000 nM.
`O=C(O)/C(S)=C/c1ccccc1Cl` [compound 7]: the IC50 in series [1] (setting [6]) was 60000 nM.
